Assay results taken from EP0769966B1, “BIOTIN COMPOUNDS FOR TARGETTING TUMORS AND SITES OF INFECTION” (priority 1994, dated 1995).

Tests used:
avidin = avidin (Gallus gallus, UniProt P02701); assay: Competitive binding of F-18 labeled biotin analogs to avidin vs. unlabeled d-biotin
Description: The two biotin derivatives were evaluated for binding to avidin in the presence of varying concentrations of unlabeled d-biotin as described in Example 3.
A preliminary measure of the binding characteristics of the fluoro analogs of biotin were performed. The binding of these novel F-18 labeled biotin analogs to avidin was evaluated by measuring the binding of F-18 labeled biotin analogs to avidin in the presence of varying concentrations of unlabeled d-biotin. Serial dilutions of d-biotin were prepared in phopshate buffered saline pH 7.4 (PBS). A fixed quantity of the no-carrier added F-18 labeled biotin 1 or 2 (10- 100µCi) were mixed with each d-biotin dilution so that the range of concentrations of cold biotin were 3 orders of magnitude greater and less than the concentration of avidin ([…]). A 200 µl aliquot of the F-18 biotin/cold biotin solution was added to 200 µl of avidin in PBS. The solution was vortexed and allowed to incubate for 1 hour after which time a 5 µl aliquot of the solution was analysed by instant thin layer chromatography (Gelman ILTC-SG) using 0.1 M acetate buffer pH 6.0. In this chromatographic system the F-18 biotin analogs bound to avidin origin while the unbound F-18-biotin analogs move to the solvent front. Percent binding of F-18 biotin analog was calculated as [(counts at origin/total counts)* 100]. For each F-18-biotin analog potential impurities remaining at the origin were determined and the results of binding corrected accordingly.

E. coli infected rats = assay: in vivo; type: in vivo, male Sprague-Dawley rats; details: for Infected to normal tissue ratio, Norm mus: infection/normal muscle
Description: (§1) A clinical isolate of E. Coli was stored at -70°C in a freezing media containing 20% glycerol and 80% dextrose phosphate until use. Aliquots of bacteria were defrosted and colony counts performed on serial dilutions grown overnight on BBL Brucella agar plates. Based on the colony count, freshly thawed bacteria suspensions were washed and diluted with saline to a final concentration of […]. Aliquots (0.1 ml) of bacterial suspensions (8 x 10^9 organisms/ml) were injected into the right thigh muscle of 48 male Sprague-Dawley rats (125-150 g, Charles River Breeding Laboratories, Burlington, MD). Twenty-four rats were used for each labeled biotin compound. Twenty-four hours after injection, swelling in the right thigh readily appeared, and 24 rats each received 1.67 mg of avidin in saline via the tail vein. […] Rats were sacrificed at 5 and 60 min. post-injection, six rats per time point. Blood samples were obtained by cardiac puncture. Syringes were weighed before and after injection to determine the volume delivered. The activity per unit volume was obtained from standards. A total of eleven different tissues were excised, weighed, and counted. These tissues included blood; bone; lung; liver; adrenal; spleen; kidneys; heart; muscle (thigh); teste; and infected muscle (thigh). The excised tissues were blotted, weighed, and counted in a scintillation well counter. The raw counts were decay corrected. The results were expressed as percent injected dose per gram, and infection-to-normal muscle ratios (mean ± s.d.). The biodistribution results were evaluated by analysis of variance (one-way ANOVA). The effect of avidin […] on biodistribution was evaluated by student t-test.

in vivo = type: in vivo, male Sprague-Dawley rats; details: rat, in vivo, iv
Description: as §1

[1] = Without Avidin, 60 Min., listed as 18F-biotin1
[2] = Without Avidin, 60 Min., listed as 18F-labeled biotin 1

Sequence of avidin (P02701 25-152): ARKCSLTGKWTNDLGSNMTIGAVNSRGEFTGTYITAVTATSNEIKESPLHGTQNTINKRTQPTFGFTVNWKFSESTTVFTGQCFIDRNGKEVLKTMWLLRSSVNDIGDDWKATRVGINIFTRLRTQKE

For `O=C(CCCC[C@@H]1SC[C@@H]2NC(=O)N[C@@H]21)NCCC[18F]` [Biotin 1], the binding to avidin (avidin; in the presence of varying concentrations of unlabeled d-biotin) was “bind to avidin and could be displaced by cold d-biotin”, the Bmax (avidin; scatchard transformation of displacement curve, cold d-biotin) was 5.57 x 10 ^-16 M and the “Infected to normal tissue ratio, Adrenal” value (E. coli infected rats; With Avidin, 5 Min.) was 1.20±0.22. The “Infected to normal tissue ratio, Blood” value (E. coli infected rats; With Avidin, 5 Min.) was 0.90±0.14, the “Infected to normal tissue ratio, Heart” value (E. coli infected rats; With Avidin, 5 Min.) was 1.08±0.18 and the “Infected to normal tissue ratio, Kidney” value (E. coli infected rats; With Avidin, 5 Min.) was 0.28±0.06. The “Infected to normal tissue ratio, Liver” value (E. coli infected rats; With Avidin, 5 Min.) was 0.83±0.16, the “Infected to normal tissue ratio, Lung” value (E. coli infected rats; With Avidin, 5 Min.) was 1.06±0.30 and the “Infected to normal tissue ratio, Spleen” value (E. coli infected rats; With Avidin, 5 Min.) was 0.64±0.11. For the same compound, the “Infected to normal tissue ratio, Teste” value (E. coli infected rats; With Avidin, 5 Min.) was 2.00±0.37, the “Infected to normal tissue ratio, bone” value (E. coli infected rats; With Avidin, 5 Min.) was 0.90±0.18 and the “Infected to normal tissue ratio, Norm mus” value (E. coli infected rats; With Avidin, 5 Min.) was 1.24±0.20. The “Infected to normal tissue ratio, Adrenal” value (E. coli infected rats; With Avidin, 60 Min.) was 5.74±1.14, the “Infected to normal tissue ratio, Blood” value (E. coli infected rats; With Avidin, 60 Min.) was 3.75±0.75 and the “Infected to normal tissue ratio, Heart” value (E. coli infected rats; With Avidin, 60 Min.) was 7.59±1.34. The “Infected to normal tissue ratio, Kidney” value (E. coli infected rats; With Avidin, 60 Min.) was 2.04±0.35, the “Infected to normal tissue ratio, Liver” value (E. coli infected rats; With Avidin, 60 Min.) was 4.05±0.65 and the “Infected to normal tissue ratio, Lung” value (E. coli infected rats; With Avidin, 60 Min.) was 4.83±0.91. For the same compound, the “Infected to normal tissue ratio, Spleen” value (E. coli infected rats; With Avidin, 60 Min.) was 3.34±0.72, the “Infected to normal tissue ratio, Teste” value (E. coli infected rats; With Avidin, 60 Min.) was 3.35±0.56 and the “Infected to normal tissue ratio, bone” value (E. coli infected rats; With Avidin, 60 Min.) was 0.28±0.07. The “Infected to normal tissue ratio, Norm mus” value (E. coli infected rats; With Avidin, 60 Min.) was 6.39± 0.96, the “Infected to normal tissue ratio, Norm mus” value (E. coli infected rats; With Avidin, 60 Min., listed as 18F-labeled biotin 1) was 6.39±0.96 and the “Infected to normal tissue ratio, Adrenal” value (E. coli infected rats; Without Avidin, 5 Min.) was 1.06±0.24. For the same compound, the “Infected to normal tissue ratio, Blood” value (E. coli infected rats; Without Avidin, 5 Min.) was 1.30±0.86, the “Infected to normal tissue ratio, Heart” value (E. coli infected rats; Without Avidin, 5 Min.) was 1.21±0.26 and the “Infected to normal tissue ratio, Kidney” value (E. coli infected rats; Without Avidin, 5 Min.) was 0.26±0.05. For the same compound, the “Infected to normal tissue ratio, Liver” value (E. coli infected rats; Without Avidin, 5 Min.) was 0.89±0.25, the “Infected to normal tissue ratio, Lung” value (E. coli infected rats; Without Avidin, 5 Min.) was 1.00±0.23 and the “Infected to normal tissue ratio, Spleen” value (E. coli infected rats; Without Avidin, 5 Min.) was 0.94±0.49. The “Infected to normal tissue ratio, Teste” value (E. coli infected rats; Without Avidin, 5 Min.) was 2.14±0.60, the “Infected to normal tissue ratio, bone” value (E. coli infected rats; Without Avidin, 5 Min.) was 1.06±0.33 and the “Infected to normal tissue ratio, Norm mus” value (E. coli infected rats; Without Avidin, 5 Min.) was 1.54±0.69. For the same compound, the “Infected to normal tissue ratio, Adrenal” value (E. coli infected rats; Without Avidin, 60 Min.) was 5.20±1.20, the “Infected to normal tissue ratio, Heart” value (E. coli infected rats; Without Avidin, 60 Min.) was 6.21±0.57 and the “Infected to normal tissue ratio, Lung” value (E. coli infected rats; Without Avidin, 60 Min.) was 4.21±0.69. For the same compound, the “Infected to normal tissue ratio, Spleen” value (E. coli infected rats; Without Avidin, 60 Min.) was 2.98±0.30, the “Infected to normal tissue ratio, Teste” value (E. coli infected rats; Without Avidin, 60 Min.) was 2.87±0.50 and the “Infected to normal tissue ratio, bone” value (E. coli infected rats; Without Avidin, 60 Min.) was 0.16±0.04. The “Infected to normal tissue ratio, Norm mus” value (E. coli infected rats; Without Avidin, 60 Min.) was 6.08 ± 1.12, the “Infected to normal tissue ratio, Norm mus” value (E. coli infected rats; Without Avidin, 60 Min., listed as 18F-Biotin 1) was 6.1±1.1 and the “Infected to normal tissue ratio, Norm mus” value (E. coli infected rats; [1]) was 6.1. For the same compound, the “Infected to normal tissue ratio, Norm mus” value (E. coli infected rats; [2]) was 6.08±1.12, the “Infected to normal tissue ratio, Norm mus” value (E. coli infected rats; Without Avidin, 60 Min., listed as biotin 1) was 6.08± 1.12 and the “Infected to normal tissue ratio, Blood” value (E. coli infected rats; [1]) was 3.1. The “Infected to normal tissue ratio, Kidney” value (E. coli infected rats; [1]) was 2.0, the “Infected to normal tissue ratio, Liver” value (E. coli infected rats; [1]) was 3.5 and the “Infected to normal tissue ratio, Blood” value (E. coli infected rats; [2]) was 3.09±0.54. The “Infected to normal tissue ratio, Kidney” value (E. coli infected rats; [2]) was 1.96±0.24, the “Infected to normal tissue ratio, Liver” value (E. coli infected rats; [2]) was 3.48±0.67 and the “accumulation in kidney relative to blood” value (E. coli infected rats; rat, in vivo, 5 min) was 4.5 fold. For the same compound, the “Tissue distribution, Adrenal” value (E. coli infected rats; rat, in vivo, iv, 5 min) was 0.85±0.13 percent injected dose per gram, the “Tissue distribution, Blood” value (E. coli infected rats; rat, in vivo, iv, 5 min) was 1.13±0.11 percent injected dose per gram and the “Tissue distribution, Bone” value (E. coli infected rats; rat, in vivo, iv, 5 min) was 1.19±0.23 percent injected dose per gram. For the same compound, the “Tissue distribution, Heart” value (E. coli infected rats; rat, in vivo, iv, 5 min) was 0.99±0.12 percent injected dose per gram, the “Tissue distribution, Inf mus” value (E. coli infected rats; rat, in vivo, iv, 5 min) was 0.99±0.11 percent injected dose per gram and the “Tissue distribution, Kidney” value (E. coli infected rats; rat, in vivo, iv, 5 min) was 4.01±0.77 percent injected dose per gram. The “Tissue distribution, Liver” value (E. coli infected rats; rat, in vivo, iv, 5 min) was 1.29±0.17 percent injected dose per gram, the “Tissue distribution, Norm mus” value (E. coli infected rats; rat, in vivo, iv, 5 min) was 0.82±0.12 percent injected dose per gram and the “Tissue distribution, Spleen” value (E. coli infected rats; rat, in vivo, iv, 5 min) was 1.52±0.32 percent injected dose per gram. For the same compound, the “Tissue distribution, Teste” value (E. coli infected rats; rat, in vivo, iv, 5 min) was 0.50±0.11 percent injected dose per gram, the “Tissue distribution, Blood” value (E. coli infected rats; rat, in vivo, iv, 1 h) was 0.19±0.04 percent injected dose per gram and the “Tissue distribution, Bone” value (E. coli infected rats; rat, in vivo, iv, 1 h) was 2.29±0.14 percent injected dose per gram. For the same compound, the “Tissue distribution, Inf mus” value (E. coli infected rats; rat, in vivo, iv, 1 h) was 0.65±0.14 percent injected dose per gram, the “Tissue distribution, Kidney” value (E. coli infected rats; rat, in vivo, iv, 1 h) was 0.32±0.04 percent injected dose per gram and the “Tissue distribution, Norm mus” value (E. coli infected rats; rat, in vivo, iv, 1 h) was 0.10±0.02 percent injected dose per gram. The “Tissue distribution, Spleen” value (E. coli infected rats; rat, in vivo, iv, 1 h) was 0.19±0.0 percent injected dose per gram, the “Tissue distribution, Teste” value (E. coli infected rats; rat, in vivo, iv, 1 h) was 0.19±0.04 percent injected dose per gram and the tissue uptake at 5 min (in vivo; Tissue distribution, Adrenal) was 1 ± 0.2 %ID/g. It also gave a tissue uptake at 1 h (in vivo; Tissue distribution, Adrenal) of 0.09 ± 0.02 %ID/g, a tissue uptake at 5 min (in vivo; Tissue distribution, Blood) of 1.07 ± 0.31 %ID/g and a tissue uptake at 1 h (in vivo; Tissue distribution, Blood) of 0.14 ± 0.02 %ID/g. The tissue uptake at 5 min (in vivo; Tissue distribution, Bone) was 1.1 ± 0.16 %ID/g, the tissue uptake at 1 h (in vivo; Tissue distribution, Bone) was 2.94 ± 0.37 %ID/g and the tissue uptake at 5 min (in vivo; Tissue distribution, Heart) was 1 ± 0.34 %ID/g. For the same compound, the tissue uptake at 1 h (in vivo; Tissue distribution, Heart) was 0.14 ± 0.02 %ID/g, the tissue uptake at 5 min (in vivo; Tissue distribution, Inf mus) was 1.22 ± 0.36 %ID/g and the tissue uptake at 1 h (in vivo; Tissue distribution, Inf mus) was 0.43 ± 0.1 %ID/g. The tissue uptake at 5 min (in vivo; Tissue distribution, Kidney) was 4.78 ± 0.8 %ID/g, the tissue uptake at 1 h (in vivo; Tissue distribution, Kidney) was 0.23 ± 0.05 %ID/g and the tissue uptake at 5 min (in vivo; Tissue distribution, Liver) was 1.39 ± 0.16 %ID/g. For the same compound, the tissue uptake at 1 h (in vivo; Tissue distribution, Liver) was 0.13 ± 0.03 %ID/g, the tissue uptake at 5 min (in vivo; Tissue distribution, Lung) was 1.21 ± 0.13 %ID/g and the tissue uptake at 1 h (in vivo; Tissue distribution, Lung) was 0.11 ± 0.02 %ID/g. For the same compound, the tissue uptake at 5 min (in vivo; Tissue distribution, Norm mus) was 0.83 ± 0.09 %ID/g, the tissue uptake at 1 h (in vivo; Tissue distribution, Norm mus) was 0.078 ± 0.02 %ID/g and the tissue uptake at 5 min (in vivo; Tissue distribution, Spleen) was 1.4 ± 0.3 %ID/g. The tissue uptake at 1 h (in vivo; Tissue distribution, Spleen) was 0.14 ± 0.03 %ID/g, the tissue uptake at 5 min (in vivo; Tissue distribution, Teste) was 0.57 ± 0.02 %ID/g and the tissue uptake at 1 h (in vivo; Tissue distribution, Teste) was 0.16 ± 0.03 %ID/g. The tissue uptake at 1 h (in vivo; ^18F bone uptake (defluorination in vivo)) was 2.94 ± 0.37 %ID/g.
